# Data taken from patent publication US12172993B2 (priority 2018, dated 2024).
# Tests used:
# RET [1] = biological target: T1, RET (Homo sapiens (Human), UniProt P07949); experiment: biochemical; conditions: read-out: Residual activity (%) at 1 μM, RET
# WEE1 = WEE1 (Homo sapiens (Human), UniProt P30291); experiment: biochemical; conditions: read-out: Residual activity (%) at 1 μM
# MDR1 = experiment: in vitro; conditions: dog, MDCK-MDR1
# PDGFR-beta = PDGFR-beta (Homo sapiens (Human), UniProt P09619); experiment: biochemical; conditions: read-out: Residual activity (%) at 1 μM
# in vitro = conditions: dog, MDCK
# BMPR1A = BMPR1A (Homo sapiens (Human), UniProt P36894); experiment: biochemical; conditions: read-out: Residual activity (%) at 1 μM
# in vivo = conditions: male, CD1, mouse
# MST4 = MST4 (Homo sapiens (Human), UniProt Q9P289); experiment: biochemical; conditions: read-out: Residual activity (%) at 1 μM
# hERG potassium channel = hERG potassium channel (Homo sapiens (Human), UniProt Q12809); conditions: 3 uM; from NDA 21-986 review; cited from earlier work
# RET [2] = biological target: T1, RET
# [3] = maximal tolerable dose (MTD) study in female C57Bl/6 mice
# murine plasma-proteins = conditions: murine plasma protein binding
# PANC-1 cells = experiment: real-time live cell microscopy of TNF-induced cell death (YOYO-1); format: cell-based; conditions: real-time live cell assay
# RAF1 = RAF1 (Homo sapiens (Human), UniProt P04049, Y340D/Y341D); format: biochemical; conditions: read-out: Residual activity (%) at 1 μM
# [4] = tested on: cell-panel representing haematological cancers; experiment: haematological cancer cell-panel growth inhibition (Oncolead); format: cell-based
# MC38 cells [5] = tested on: MC38 cells
# MC38 cells [6] = experiment: cells; conditions: Mus musculus, MC-38, 72 h, read-out: MC38 IC50 (nM at 100 ng/mL TNF)
# [7] = human, microsomes, 40 min
# human plasma-proteins = conditions: human plasma-protein binding
# [8] = tested on: immune cells present in the tumour microenvironment
# NFKB activity = conditions: PANC-1 reporter cells; in words
# [9] = twice daily treatment, intra-tumoural
# T1 sequence (P07949 29-1114 limits assumed): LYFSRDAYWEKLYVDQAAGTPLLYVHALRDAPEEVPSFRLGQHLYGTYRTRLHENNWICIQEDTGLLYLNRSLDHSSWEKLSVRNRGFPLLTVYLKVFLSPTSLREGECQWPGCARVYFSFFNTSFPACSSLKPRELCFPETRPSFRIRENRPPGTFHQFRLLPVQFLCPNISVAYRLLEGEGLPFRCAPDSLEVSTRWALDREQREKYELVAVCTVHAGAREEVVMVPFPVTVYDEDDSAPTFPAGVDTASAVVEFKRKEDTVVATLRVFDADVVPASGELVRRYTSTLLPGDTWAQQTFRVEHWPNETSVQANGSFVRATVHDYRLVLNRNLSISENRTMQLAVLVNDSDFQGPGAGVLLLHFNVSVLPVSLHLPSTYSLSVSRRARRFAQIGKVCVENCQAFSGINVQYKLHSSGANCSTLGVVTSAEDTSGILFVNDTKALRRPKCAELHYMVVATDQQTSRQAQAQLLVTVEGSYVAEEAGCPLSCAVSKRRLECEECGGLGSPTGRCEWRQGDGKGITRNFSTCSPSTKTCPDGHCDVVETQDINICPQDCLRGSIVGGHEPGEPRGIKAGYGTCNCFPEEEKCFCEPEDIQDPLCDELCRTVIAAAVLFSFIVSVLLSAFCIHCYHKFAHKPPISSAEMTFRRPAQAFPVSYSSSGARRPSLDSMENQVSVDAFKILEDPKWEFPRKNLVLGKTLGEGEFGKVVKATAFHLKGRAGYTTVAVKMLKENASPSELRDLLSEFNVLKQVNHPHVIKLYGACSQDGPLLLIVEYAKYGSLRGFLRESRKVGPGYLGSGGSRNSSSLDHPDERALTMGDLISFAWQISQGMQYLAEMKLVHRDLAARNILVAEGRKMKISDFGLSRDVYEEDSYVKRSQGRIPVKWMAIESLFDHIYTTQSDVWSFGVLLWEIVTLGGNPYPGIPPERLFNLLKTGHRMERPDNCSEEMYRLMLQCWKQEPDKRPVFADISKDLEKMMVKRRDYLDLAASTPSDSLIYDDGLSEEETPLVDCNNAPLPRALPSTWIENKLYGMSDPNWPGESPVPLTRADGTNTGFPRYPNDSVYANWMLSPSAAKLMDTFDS
# RAF1, sequence (P04049 307-648 Y340D/Y341D limits assumed): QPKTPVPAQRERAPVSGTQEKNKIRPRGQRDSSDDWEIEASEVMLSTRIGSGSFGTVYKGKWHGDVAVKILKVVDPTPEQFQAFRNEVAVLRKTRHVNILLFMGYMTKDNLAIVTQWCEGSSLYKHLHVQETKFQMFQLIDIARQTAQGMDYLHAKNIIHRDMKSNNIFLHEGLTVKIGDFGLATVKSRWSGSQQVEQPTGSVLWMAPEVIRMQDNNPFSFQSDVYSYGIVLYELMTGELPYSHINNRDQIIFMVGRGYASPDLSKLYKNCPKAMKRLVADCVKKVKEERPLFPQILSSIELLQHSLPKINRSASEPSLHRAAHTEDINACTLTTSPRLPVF
# PDGFR-beta, sequence (P09619 33-1106 limits assumed): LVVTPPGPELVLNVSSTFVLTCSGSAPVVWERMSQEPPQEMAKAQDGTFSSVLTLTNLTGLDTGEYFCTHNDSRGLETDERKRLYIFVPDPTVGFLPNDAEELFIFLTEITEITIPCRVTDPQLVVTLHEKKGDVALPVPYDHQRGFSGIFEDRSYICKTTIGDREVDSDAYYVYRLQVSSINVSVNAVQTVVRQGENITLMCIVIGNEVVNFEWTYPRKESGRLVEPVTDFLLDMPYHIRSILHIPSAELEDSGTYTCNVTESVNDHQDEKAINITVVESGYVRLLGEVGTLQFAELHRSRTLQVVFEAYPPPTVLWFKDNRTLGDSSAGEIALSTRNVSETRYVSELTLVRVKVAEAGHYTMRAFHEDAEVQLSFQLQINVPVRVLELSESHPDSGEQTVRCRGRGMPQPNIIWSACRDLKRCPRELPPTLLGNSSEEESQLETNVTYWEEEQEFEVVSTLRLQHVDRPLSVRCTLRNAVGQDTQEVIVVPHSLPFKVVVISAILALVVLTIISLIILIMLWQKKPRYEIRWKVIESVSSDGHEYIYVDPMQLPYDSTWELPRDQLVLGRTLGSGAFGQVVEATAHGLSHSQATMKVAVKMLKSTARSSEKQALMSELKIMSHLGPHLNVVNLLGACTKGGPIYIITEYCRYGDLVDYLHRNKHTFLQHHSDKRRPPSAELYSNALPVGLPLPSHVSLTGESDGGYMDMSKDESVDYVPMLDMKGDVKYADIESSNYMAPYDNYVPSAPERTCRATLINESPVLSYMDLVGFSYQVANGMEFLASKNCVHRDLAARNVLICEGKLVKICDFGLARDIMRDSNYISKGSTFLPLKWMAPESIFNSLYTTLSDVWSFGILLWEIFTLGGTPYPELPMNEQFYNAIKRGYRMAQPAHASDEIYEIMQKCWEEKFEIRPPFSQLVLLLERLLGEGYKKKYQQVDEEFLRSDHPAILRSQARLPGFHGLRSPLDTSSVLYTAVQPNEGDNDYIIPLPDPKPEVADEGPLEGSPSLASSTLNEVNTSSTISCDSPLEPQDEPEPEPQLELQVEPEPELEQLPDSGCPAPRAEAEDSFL
# BMPR1A, sequence (P36894 24-532 limits assumed): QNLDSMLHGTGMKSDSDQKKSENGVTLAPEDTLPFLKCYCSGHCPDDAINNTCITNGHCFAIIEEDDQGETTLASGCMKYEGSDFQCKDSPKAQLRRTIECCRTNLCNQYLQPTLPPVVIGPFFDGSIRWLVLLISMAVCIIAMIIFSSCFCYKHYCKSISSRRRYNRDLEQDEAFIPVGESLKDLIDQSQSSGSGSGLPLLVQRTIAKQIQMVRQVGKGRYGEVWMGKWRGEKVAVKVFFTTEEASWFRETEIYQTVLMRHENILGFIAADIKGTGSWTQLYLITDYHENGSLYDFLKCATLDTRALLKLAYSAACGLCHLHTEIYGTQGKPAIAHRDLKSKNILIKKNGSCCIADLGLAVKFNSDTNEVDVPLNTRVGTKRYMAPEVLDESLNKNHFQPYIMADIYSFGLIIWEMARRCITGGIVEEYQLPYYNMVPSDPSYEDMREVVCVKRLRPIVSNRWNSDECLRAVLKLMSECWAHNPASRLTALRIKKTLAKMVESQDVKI
compound,measurement,setting,value
"Cc1nc(Nc2ncc(C(=O)Nc3c(C)cccc3Cl)s2)cc(N2CCN(CCO)CC2)n1 [Compound A8, N-(2-chloro-6-methylphenyl)-2-((6-(4-(2-hydroxyethyl)piperazin-1-yl)-2-methylpyrimidin-4-yl)amino)thiazole-5-carboxamide, reference compound]",remaining activity at 1 µM,RET [1],< 40%
same,remaining activity at 1 µM,WEE1,61%
same,Papp,MDR1,105 ×10⁻⁶ cm/s
same,remaining activity at 1 µM,PDGFR-beta,2%
same,Papp,in vitro,49 ×10⁻⁶ cm/s
same,remaining activity at 1 µM,BMPR1A,42%
same,Cmax,"in vivo; plasma, iv, 1 mg/kg",1280 nM
same,MRT inf,"in vivo; plasma, iv, 1 mg/kg",1.6 h
same,MRT last,"in vivo; plasma, iv, 1 mg/kg",1.3 h
same,Tmax,"in vivo; plasma, iv, 1 mg/kg",0.08 h
same,Vd,"in vivo; plasma, iv, 1 mg/kg",3.1 L/kg
same,clearance,"in vivo; plasma, iv, 1 mg/kg",32 mL/min/kg
same,Cmax,"in vivo; plasma, po, 30 mg/kg",1130 nM
same,Tmax,"in vivo; plasma, po, 30 mg/kg",2 h
same,bioavailability,"in vivo; plasma, po, 30 mg/kg",21%
same,remaining activity at 1 µM,MST4,79%
same,inhibition of hERG currents,hERG potassium channel,about 6%
same,Residual activity (%) at 1 μM,RET [2],39%
"Cc1nc(Nc2ncc(C(=O)Nc3c(C)csc3Cl)s2)cc(N2CCN(CCO)CC2)n1 [Compound C7, N-(2-chloro-4-methylthiophen-3-yl)-2-((6-(4-(2-hydroxyethyl)piperazin-1-yl)-2-methylpyrimidin-4-yl)amino)thiazole-5-carboxamide]",signs of intolerance,"[3]; 33 and 100 mg/kg QD or BID, 7 consecutive days",did not show any signs of intolerance
same,body weight,[3]; all dosing groups vs non-treated control animals,minor reduction in body weight
same,tolerable dose,"[3]; gavage, female C57BL/6 animals, seven days",up to 100 mg/kg BID
same,Percentage unbound (%),murine plasma-proteins,5%
same,sensitisation to the effect of rHuTNF,PANC-1 cells,sensitise PANC-1 cells to the effect of rHuTNF
same,remaining activity at 1 µM,RAF1,4 to 5%
same,phosphorylation of HDAC4,HDAC4 phosphorylation,inhibit the phosphorylation of HDAC4
same,GI50 activity,[4]; on about 5 cell lines of the panel,sub-nanomolar
same,GI50,[4]; read-out: GI50 activity,< 0.01 µM
same,sensitisation to the cytotoxic effect of TNF,MC38 cells [5],sensitised to the cytotoxic effect of TNF
same,IC50,MC38 cells [6],< 100 nM
same,% Remaining at 40 min (%),[7],1%
same,MRT inf,"in vivo; in vivo, iv, 1 mg/kg",1 h
same,MRT last,"in vivo; in vivo, iv, 1 mg/kg",0.7 h
same,Percentage unbound (%),human plasma-proteins,<1%
same,immunosuppressive M2 macrophages (CD206+MHC-II+),"[8]; mouse, in vivo",significantly reduced
same,"activation of cytotoxic T lymphocytes, CD25+CD69+",[8]; [9],increased activation
same,"activation of cytotoxic T lymphocytes, granzyme B expression",[8]; [9],increased activation
same,TNF-induced activity of NFkB,NFKB activity,inhibit TNF-induced activity of NFkB in a dose-dependent manner
